The text below walks through data of ChEMBL document CHEMBL3991601, “The target landscape of clinical kinase drugs” (Science, 2017).

Experiment [1] deals with T1, Beta-adrenergic receptor kinase 1 (Homo sapiens, UniProt P25098).
T1 sequence (P25098 whole entry): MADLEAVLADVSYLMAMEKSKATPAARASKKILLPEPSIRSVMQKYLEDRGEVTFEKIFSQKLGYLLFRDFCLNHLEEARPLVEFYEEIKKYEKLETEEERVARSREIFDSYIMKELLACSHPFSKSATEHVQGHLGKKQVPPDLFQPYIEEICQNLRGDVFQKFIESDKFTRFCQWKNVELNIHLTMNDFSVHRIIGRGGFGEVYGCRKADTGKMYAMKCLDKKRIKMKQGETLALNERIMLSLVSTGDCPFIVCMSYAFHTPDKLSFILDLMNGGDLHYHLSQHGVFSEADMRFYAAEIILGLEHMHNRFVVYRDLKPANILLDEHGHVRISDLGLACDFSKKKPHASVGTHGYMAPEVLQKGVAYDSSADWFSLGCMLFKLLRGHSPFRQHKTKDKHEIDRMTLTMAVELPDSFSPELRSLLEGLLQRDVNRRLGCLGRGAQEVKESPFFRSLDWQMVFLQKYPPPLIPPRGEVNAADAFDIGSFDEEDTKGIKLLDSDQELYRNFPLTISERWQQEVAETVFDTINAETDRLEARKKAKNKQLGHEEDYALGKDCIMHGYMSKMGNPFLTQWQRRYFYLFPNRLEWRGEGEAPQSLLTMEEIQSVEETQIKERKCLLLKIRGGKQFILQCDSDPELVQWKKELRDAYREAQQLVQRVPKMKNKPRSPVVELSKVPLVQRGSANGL

Experiment [2] deals with T2, ATP-dependent RNA helicase DHX30 (Homo sapiens, UniProt Q7L2E3).
T2 sequence (Q7L2E3 whole entry): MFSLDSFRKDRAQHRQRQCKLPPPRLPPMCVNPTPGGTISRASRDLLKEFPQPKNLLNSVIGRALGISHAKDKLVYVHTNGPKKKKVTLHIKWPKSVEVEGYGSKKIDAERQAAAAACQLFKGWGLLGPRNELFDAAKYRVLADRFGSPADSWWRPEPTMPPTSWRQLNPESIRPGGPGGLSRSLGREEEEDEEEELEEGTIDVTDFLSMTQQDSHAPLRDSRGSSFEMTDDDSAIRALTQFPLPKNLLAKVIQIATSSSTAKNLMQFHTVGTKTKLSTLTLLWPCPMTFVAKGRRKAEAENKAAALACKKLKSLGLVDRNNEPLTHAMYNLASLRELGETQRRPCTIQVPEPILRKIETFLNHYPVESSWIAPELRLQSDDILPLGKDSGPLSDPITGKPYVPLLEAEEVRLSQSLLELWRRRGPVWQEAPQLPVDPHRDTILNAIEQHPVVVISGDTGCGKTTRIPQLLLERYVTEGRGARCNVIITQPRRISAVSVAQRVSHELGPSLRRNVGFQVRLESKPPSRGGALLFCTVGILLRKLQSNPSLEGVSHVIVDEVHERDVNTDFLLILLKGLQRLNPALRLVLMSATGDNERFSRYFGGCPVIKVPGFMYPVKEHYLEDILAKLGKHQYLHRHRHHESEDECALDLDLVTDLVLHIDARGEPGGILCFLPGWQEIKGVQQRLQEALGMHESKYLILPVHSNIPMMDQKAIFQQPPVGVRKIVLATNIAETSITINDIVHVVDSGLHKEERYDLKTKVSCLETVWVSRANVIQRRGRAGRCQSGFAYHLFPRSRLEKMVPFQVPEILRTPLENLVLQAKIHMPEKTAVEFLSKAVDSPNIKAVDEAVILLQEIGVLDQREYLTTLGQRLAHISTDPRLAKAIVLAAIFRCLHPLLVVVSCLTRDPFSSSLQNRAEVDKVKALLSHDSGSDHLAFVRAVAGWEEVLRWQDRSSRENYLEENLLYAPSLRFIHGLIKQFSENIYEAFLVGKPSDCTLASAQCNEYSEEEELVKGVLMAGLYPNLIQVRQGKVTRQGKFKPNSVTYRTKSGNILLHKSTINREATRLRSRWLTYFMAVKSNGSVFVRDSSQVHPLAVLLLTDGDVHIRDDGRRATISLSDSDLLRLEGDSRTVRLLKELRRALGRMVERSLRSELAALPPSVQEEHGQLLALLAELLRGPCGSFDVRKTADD

Experiment [3] deals with Glycogen synthase kinase-3 alpha (Homo sapiens, UniProt P49840).
The target of experiment [4] is Tyrosine-protein kinase Lck (Homo sapiens, UniProt P06239).
The next experiment deals with Midasin (Homo sapiens, UniProt Q9NU22).
Experiment [5] has as its target Ribosomal protein S6 kinase alpha-3 (Homo sapiens, UniProt P51812).
The target of a further experiment is T3, ADP/ATP translocase 2 (Homo sapiens, UniProt P05141).
T3 sequence (P05141 whole entry): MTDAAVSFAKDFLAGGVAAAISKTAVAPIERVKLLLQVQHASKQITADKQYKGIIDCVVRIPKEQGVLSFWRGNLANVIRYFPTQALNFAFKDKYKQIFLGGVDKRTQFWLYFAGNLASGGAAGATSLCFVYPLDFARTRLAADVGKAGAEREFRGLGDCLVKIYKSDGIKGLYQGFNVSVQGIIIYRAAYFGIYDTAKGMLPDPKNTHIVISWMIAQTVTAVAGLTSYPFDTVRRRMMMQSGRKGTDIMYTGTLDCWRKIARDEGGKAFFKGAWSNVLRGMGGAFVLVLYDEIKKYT

pKd: −log10 of the molar value. The source made the active and inactive calls.
Further: in the data inactive means no Kd found up to 30 µM.

Sequence of Tyrosine-protein kinase Lck (P06239 whole entry): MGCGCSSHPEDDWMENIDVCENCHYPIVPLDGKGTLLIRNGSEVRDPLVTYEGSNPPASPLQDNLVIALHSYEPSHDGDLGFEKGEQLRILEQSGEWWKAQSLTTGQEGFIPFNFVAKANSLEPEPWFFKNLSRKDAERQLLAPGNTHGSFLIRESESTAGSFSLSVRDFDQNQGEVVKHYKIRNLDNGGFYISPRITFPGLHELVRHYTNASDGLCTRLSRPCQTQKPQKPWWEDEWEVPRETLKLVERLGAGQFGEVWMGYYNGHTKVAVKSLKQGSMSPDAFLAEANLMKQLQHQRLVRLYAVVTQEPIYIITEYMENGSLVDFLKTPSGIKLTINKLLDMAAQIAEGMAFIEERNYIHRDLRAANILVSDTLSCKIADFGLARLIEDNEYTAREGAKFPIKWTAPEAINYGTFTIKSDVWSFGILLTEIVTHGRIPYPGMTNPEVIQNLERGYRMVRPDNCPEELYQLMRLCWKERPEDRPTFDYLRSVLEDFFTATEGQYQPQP
Sequence of Ribosomal protein S6 kinase alpha-3 (P51812 whole entry): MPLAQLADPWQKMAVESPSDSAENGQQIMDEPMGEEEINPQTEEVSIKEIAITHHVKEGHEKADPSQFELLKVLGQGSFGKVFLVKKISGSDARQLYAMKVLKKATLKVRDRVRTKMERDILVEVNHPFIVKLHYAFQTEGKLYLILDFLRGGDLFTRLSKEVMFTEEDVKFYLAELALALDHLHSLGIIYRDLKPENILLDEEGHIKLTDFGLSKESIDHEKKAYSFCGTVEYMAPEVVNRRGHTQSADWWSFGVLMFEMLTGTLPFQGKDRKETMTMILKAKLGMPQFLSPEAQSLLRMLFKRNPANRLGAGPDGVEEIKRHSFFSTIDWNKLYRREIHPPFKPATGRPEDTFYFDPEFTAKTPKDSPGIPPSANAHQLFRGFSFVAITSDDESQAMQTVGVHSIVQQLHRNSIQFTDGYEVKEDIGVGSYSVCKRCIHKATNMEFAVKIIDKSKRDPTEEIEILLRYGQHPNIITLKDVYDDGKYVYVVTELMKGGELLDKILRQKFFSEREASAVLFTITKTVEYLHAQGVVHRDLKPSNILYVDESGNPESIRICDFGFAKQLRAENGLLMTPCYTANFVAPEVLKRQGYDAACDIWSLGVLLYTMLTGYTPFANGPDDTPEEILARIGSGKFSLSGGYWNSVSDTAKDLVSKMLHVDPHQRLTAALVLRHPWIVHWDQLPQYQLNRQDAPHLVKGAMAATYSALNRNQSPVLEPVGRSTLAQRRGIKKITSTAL
Sequence of Glycogen synthase kinase-3 alpha (P49840 whole entry): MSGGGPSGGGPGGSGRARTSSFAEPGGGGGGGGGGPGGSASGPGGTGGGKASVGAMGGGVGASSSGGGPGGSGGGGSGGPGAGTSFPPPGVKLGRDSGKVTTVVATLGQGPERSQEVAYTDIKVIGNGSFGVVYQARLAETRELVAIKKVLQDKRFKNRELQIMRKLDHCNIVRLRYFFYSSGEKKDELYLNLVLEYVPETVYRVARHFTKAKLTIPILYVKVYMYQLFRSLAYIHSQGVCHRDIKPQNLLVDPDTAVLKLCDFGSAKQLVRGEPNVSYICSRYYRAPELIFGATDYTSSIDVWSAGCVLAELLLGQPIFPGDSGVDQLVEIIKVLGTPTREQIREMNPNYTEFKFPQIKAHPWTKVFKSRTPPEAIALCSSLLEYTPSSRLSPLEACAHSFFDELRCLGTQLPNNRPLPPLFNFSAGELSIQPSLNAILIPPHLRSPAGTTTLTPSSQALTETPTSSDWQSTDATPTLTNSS

What is called Kd is the equilibrium constant for the complex coming apart. The pKd is −log10 of the Kd, conventionally taken in molar units. Read a high pKd as a small Kd. As to `C=CC(=O)N1CCC[C@H](n2c(=O)n(-c3ccc(Oc4ccccc4)cc3)c3c(N)ncnc32)C1`, the Kd (in experiment [1]; in experiment [2]; in experiment [3]; at Midasin; in experiment [5]; on ADP/ATP translocase 2) was > 30 µM (inactive) each time. This molecule showed a pKd in experiment [4] of 8.30.

Take `Cc1nc2cc(-c3nn(C(C)C)c4ncnc(N)c34)ccc2o1`: the Kd (in experiment [1]; in experiment [2]; in experiment [3]; in experiment [4]; on Midasin; in experiment [5]) was > 30 µM (inactive) throughout. Moreover, the Kd at ADP/ATP translocase 2 was > 30 µM (inactive).

In the case of `COCc1c(-c2ccc(NC(=O)Nc3cc(C(F)(F)F)ccc3F)c(F)c2)c2c(N)ncnn2c1CN1CCOCC1`, the Kd in experiment [1] is > 30 µM (inactive); in experiment [2] it was > 30 µM (inactive); in experiment [3] it was > 30 µM (inactive); in experiment [4], > 30 µM (inactive); on Midasin it was > 30 µM (inactive); in experiment [5], 5.31 µM (active). Moreover, the Kd on ADP/ATP translocase 2 is > 30 µM (inactive).

On to `Nc1ncnc2c1c(-c1cccc(OCc3ccccc3)c1)cn2[C@H]1C[C@@H](CN2CCC2)C1` [AEW-541], for which the Kd (in experiment [1]; in experiment [2]; in experiment [3]; in experiment [4]; on Midasin; in experiment [5]) was > 30 µM (inactive) in each case. Moreover, the Kd on ADP/ATP translocase 2 is > 30 µM (inactive).

Regarding `Cc1csc(-c2nnc(Nc3ccc(Oc4ncccc4-c4ccnc(N)n4)cc3)c3ccccc23)c1` [AMG-900], the Kd (in experiment [1]; in experiment [2]; in experiment [3]; in experiment [4]; in experiment [5]; at ADP/ATP translocase 2) was > 30 µM (inactive) throughout.

Consider `C=CC(=O)Nc1cc2c(Nc3ccc(F)c(Cl)c3)ncnc2cc1C#CC(C)(C)N1CCN(C)CC1` [AV-412 FREE BASE], for which the Kd (in experiment [1]; in experiment [2]; in experiment [3]; in experiment [4]; on Midasin; in experiment [5]) was > 30 µM (inactive) in each case. The Kd at ADP/ATP translocase 2 is > 30 µM (inactive).

Take `NC(=O)Nc1cc(-c2cccc(F)c2)sc1C(=O)N[C@H]1CCCNC1` [AZD-7762]: the Kd in experiment [1] was > 30 µM (inactive); in experiment [2] it was > 30 µM (inactive); in experiment [3], > 30 µM (inactive); in experiment [4] it was 1.29 µM (active); on Midasin it was > 30 µM (inactive); in experiment [5] it was > 30 µM (inactive). Further, the Kd on ADP/ATP translocase 2 is > 30 µM (inactive).

On to `Cc1cc(C(=O)NOCCO)c(Nc2ccc(I)cc2F)n(C)c1=O` [AZD-8330], for which the Kd (in experiment [1]; in experiment [2]; in experiment [3]; in experiment [4]; on Midasin; in experiment [5]) was > 30 µM (inactive) in each case. The Kd on ADP/ATP translocase 2 was > 30 µM (inactive).

Take `Cn1cnc2c(F)c(Nc3ccc(Br)cc3F)c(C(=O)NOCCO)cc21` [BINIMETINIB]: the Kd (in experiment [1]; in experiment [2]; in experiment [3]; in experiment [4]; at Midasin; in experiment [5]) was > 30 µM (inactive) each time. On ADP/ATP translocase 2, the Kd was > 30 µM (inactive).

`Cc1cc(Nc2ncc(Cl)c(Nc3ccccc3S(=O)(=O)C(C)C)n2)c(OC(C)C)cc1C1CCNCC1` [CERITINIB]: the Kd (in experiment [1]; in experiment [2]; in experiment [3]; in experiment [4]; at Midasin; in experiment [5]) was > 30 µM (inactive) throughout. The Kd at ADP/ATP translocase 2 was > 30 µM (inactive).
